Assays:
ov-NNMT NCI-H82 cell = assay: Cell viability (Promega CellTiter-Glo, intracellular ATP), IC50 on NNMT-overexpressing NCI-H82 cell; type: cell-based; details: Homo sapiens; NCI-H82 cell overexpressing NNMT protein
From the text: (§1) The expression of NNMT protein in NCI-H82 cell was overexpressed by inserting the NNMT gene into NCI-H82 cell using a viral vector, and the NNMT protein-overexpressing NCI-H82 cell (ov-NNMT NCI-H82 cell) was obtained. The normal and untreated NCI-H82 cell (Con-NCI-H82 cell) was used as control. The expressing content of NNMT protein in the ov-NNMT NCI-H82 cell and Con-NCI-H82 cell was detected using Western Blot assay (as shown in FIG. 1), it could be seen from FIG. 1 that the NNMT protein was overexpressed in the ov-NNMT NCI-H82 cell compared with the expression level of NNMT protein in the Con-NCI-H82 cell.
(§2) The cell viability was detected using the Promega CellTiter-Glo kit which reflected cell viability by measuring intracellular ATP content. The Con-NCI-H82 cell and ov-NNMT NCI-H82 cell was cultured in 10% fetal bovine serum-containing RPMI1640 medium (+P/S).

Con-NCI-H82 cell = assay: Cell viability (Promega CellTiter-Glo, intracellular ATP), IC50 on Con-NCI-H82 cell; type: cell-based; details: Homo sapiens; normal untreated NCI-H82 cell (control)
From the text: as §1, §2

SMILES	IC50 (ov-NNMT NCI-H82 cell) [nM]	IC50 (Con-NCI-H82 cell) [nM]
O=C1c2cc(OC(F)(F)F)ccc2CCC1[n+]1ccc2cn(Cc3ccccc3)cc2c1 (centres unmarked) [AB27289]	2050	285
O=C(Cn1ccc2c[n+](Cc3ccccc3)ccc21)c1ccc(C(F)(F)F)cc1 [AB27264]	2220	267
Cc1ccc2c(c1)CCC([n+]1ccc3c(c1)c(C)cn3Cc1ccccc1)C2=O (centres unmarked) [AB27177]	1860	131
CCCn1ccc2c[n+](C3CCc4ccc(C(F)(F)F)cc4C3=O)ccc21 (centres unmarked) [AB27150]	3170	632
Cc1cn(C2CCc3ccc(OC(F)(F)F)cc3C2=O)c2cc[n+](Cc3ccccc3)cc12 (centres unmarked) [AB27465]	1030	160
O=C1c2ccc(OC(F)(F)F)cc2CCC1n1ccc2c[n+](Cc3ccccc3)ccc21 (centres unmarked) [AB27291]	1040	79
O=C(C[n+]1ccc2c(c1)CCC(c1ccccc1)N2)c1cccc(OC(F)(F)F)c1 (centres unmarked) [AB27147]	5480	1390
O=C(Cn1ccc2c[n+](Cc3ccccc3)ccc21)c1cccc(C(F)(F)F)c1 [AB27262]	1000	57
CCCCCn1ccc2c[n+](C3CCc4ccc(OC(F)(F)F)cc4C3=O)ccc21 (centres unmarked) [AB27249]	1520	222
O=C(Cn1ccc2c[n+](Cc3ccccc3)ccc21)c1ccc(OC(F)(F)F)cc1 [AB27265]	864	123
Cc1cn(C2CCc3ccc(OC(F)(F)F)cc3C2=O)c2cc[n+](C(C)c3ccccc3)cc12 (centres unmarked) [AB27469]	5430	427
Cc1ccc(C(=O)Cn2cc(C)c3c[n+](Cc4ccccc4)ccc32)cc1 [AB27268]	1320	104
O=C(Cn1ncc2c[n+](Cc3ccccc3)ccc21)c1cccc(C(F)(F)F)c1 [AB27499]	6840	921
O=C1c2ccc(OC(F)(F)F)cc2CCC1[n+]1ccc2c(c1)CCC(c1ccccc1)N2 (centres unmarked) [AB27105]	5430	874
O=C(Cn1cnc2c[n+](Cc3ccccc3)ccc21)c1cccc(OC(F)(F)F)c1 [AB31702]	17500	5460
CCc1cc(NCc2ccccc2)cc[n+]1CC(=O)c1ccc(C)cc1 [AB27236]	822	50
Cc1c(Cl)c2c[n+](Cc3ccccc3)ccc2n1CC(=O)c1cccc(C(F)(F)F)c1 [AB27484]	8030	1190

SMILES	IC50 (ov-NNMT NCI-H82 cell) [nM]	IC50 (Con-NCI-H82 cell) [nM]
O=C(C[n+]1ccc2c(c1)CCC(c1ccccc1)N2)c1cccc(C(F)(F)F)c1 (centres unmarked) [AB27146]	6790	1710
Cc1cn(CC(=O)c2cccc(F)c2)c2cc[n+](Cc3ccccc3)cc12 [AB27478]	283	23
CC(C)n1ccc2c[n+](C3CCc4ccc(OC(F)(F)F)cc4C3=O)ccc21 (centres unmarked) [AB27157]	6320	1530
O=C1c2cc(OC(F)(F)F)ccc2CCC1[n+]1cnc2c(c1)CCC(c1ccccc1)N2 (centres unmarked) [AB27136]	14600	5610
O=C1c2ccc(C(F)(F)F)cc2CCC1n1ccc2c[n+](Cc3ccccc3)ccc21 (centres unmarked) [AB27290]	944	91
Cc1cccc(-c2c[nH]c3c[n+](CC(=O)c4ccc(OC(F)(F)F)cc4)ccc23)c1 [AB27121]	6450	2260
Cc1cn(C2CCc3ccc(C(F)(F)F)cc3C2=O)c2cc[n+](C(C)c3ccccc3)cc12 (centres unmarked) [AB27468]	6030	571
O=C1c2cc(Cl)ccc2CCC1n1ccc2c[n+](Cc3ccc(Cl)cc3)ccc21 (centres unmarked) [AB27245]	868	88
O=C(C[n+]1ccc2c(ccn2C2CCc3ccc(Cl)cc3C2=O)c1)c1ccccc1 (centres unmarked) [AB27314]	5580	3040
O=C1c2cc(OC(F)(F)F)ccc2CCC1[n+]1ccc2c(ccn2CC2CC2)c1 (centres unmarked) [AB27247]	1650	403
Cc1cc2c[n+](Cc3ccccc3)ccc2n1CC(=O)c1ccc(C(F)(F)F)cc1 [AB27357]	1220	74
Cc1ccc2c(c1)C(=O)C(n1ccc3c[n+](C(C)c4ccccc4)ccc31)CC2 (centres unmarked) [AB27180]	222	16
Cc1cccc(C(=O)Cn2ccc3c[n+](Cc4ccccc4)ccc32)c1 [AB27259]	235	18
Cc1cn(CC(=O)c2ccc(OC(F)(F)F)cc2)c2cc[n+](Cc3ccccc3)cc12 [AB27461]	9350	1980
Cc1cccc(C(=O)Cn2cc(C)c3c[n+](Cc4ccccc4)ccc32)c1 [AB27267]	903	113
O=C(Cn1ccc2c[n+](Cc3ccccc3)ccc21)c1cccc(OC(F)(F)F)c1 [AB27263]	322	32
CCCn1ccc2c[n+](C3CCc4ccc(Cl)cc4C3=O)ccc21 (centres unmarked) [AB27253]	5480	1680

Source: patent US20250214993A1, “AROMATIC RING COMPOUND AND USE THEREOF” (SHANGHAI SHIJIANG BIOTECHNOLOGY CO., LTD, priority 2022, published 2025)
